Numbers after ± are expanded uncertainties.
Conditions: Liquid, Vibrating tube method

CCCO [propan-1-ol]
mass density [kg/m3]
Conditions | 293.15 K | 313.15 K | 333.15 K | 353.15 K
100 kPa | 803.8 ± 0.8 | 787.1 ± 0.8 | 769.9 ± 0.8 | 752 ± 0.8
10000 kPa | 811.3 ± 0.8 | 795.5 ± 0.8 | 780 ± 0.8 | 762.5 ± 0.8
20000 kPa | 818.1 ± 0.8 | 803 ± 0.8 | 788.3 ± 0.8 | 771.8 ± 0.8
30000 kPa | 824.4 ± 0.9 | 810 ± 0.9 | 795.7 ± 0.9 | 780.2 ± 0.9
40000 kPa | 830 ± 0.9 | 816.4 ± 0.9 | 802.5 ± 0.9 | 787.9 ± 0.9
50000 kPa | 835.6 ± 0.9 | 822.3 ± 0.9 | 809 ± 0.9 | 795 ± 0.9
60000 kPa | 841 ± 0.9 | 827.9 ± 0.9 | 815 ± 1 | 801.4 ± 1
70000 kPa | 845.9 ± 1 | 833.2 ± 1 | 820.6 ± 1 | 807.7 ± 1
80000 kPa | 850.7 ± 1 | 838.3 ± 1 | 826.2 ± 1 | 813.4 ± 1
90000 kPa | 855.2 ± 1 | 843 ± 1 | 831.2 ± 1 | 818.7 ± 1.1
100000 kPa | 859.6 ± 1 | 847.9 ± 1.1 | 836.3 ± 1.1 | 823.8 ± 1.1
110000 kPa | 863.7 ± 1.1 | 852.3 ± 1.1 | 840.9 ± 1.1 | 828.8 ± 1.1
120000 kPa | 867.8 ± 1.1 | 856.6 ± 1.1 | 845.3 ± 1.1 | 833.5 ± 1.2
130000 kPa | 871.6 ± 1.1 | 860.7 ± 1.1 | 849.6 ± 1.2 | 837.9 ± 1.2
140000 kPa | 875.3 ± 1.1 | 864.6 ± 1.1 | 853.6 ± 1.2 | 842.1 ± 1.2
